Here are results for 1 compound from patent publication US10787425B2, “Thiazolidinedione derivative and use thereof” (INDUSTRY-ACADEMIC COOPERATION FOUNDATION CHOSUN UNIVERSITY, priority 2016, dated 2020).

Molecules are shown by their SMILES.

Experiment [1] deals with 15-PGDH (Homo sapiens (Human), UniProt P15428). Put plainly: 15-PGDH inhibitory activity (NADH at 340 nm). The format is biochemical. Particulars: concentration inhibiting 50% of 15-PGDH activity; purified 15-PGDH, 21 μM PGE2, 0.25 mM NAD+. The method in brief: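 GST-purified human 15-PGDH (E. coli BL-21 LysS, 10 μg) with 21 μM PGE2 and 0.25 mM NAD+ in 50 mM Tris-HCl pH 7.5, 0.1 mM DTT. Compound tested at 0.0001–64 μM; NADH formation read by absorbance at 340 nm against a standard curve.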

Experiment [2] concerns A549 cells. The experiment can be described thus: Measurement of PGE2 concentration in A549 cell medium (ELISA). Type of experiment: cell-based, human. The method in brief:
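A549 cells in RPMI 1640 with 8% FBS, seeded at 5×10^5 cells/well and grown 24 h at 37° C, 5% CO2; at ~80% confluence treated with 15-PGDH inhibitor at 5 μM in PBS (PBS-only negative control). After 12 h, PGE2 in the medium was measured by ELISA against a standard curve.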
(In general: In an ELISA, binding on a coated surface is turned into a signal by an enzyme label.)

For experiment [3], the system named is HaCaT cells. The experiment can be described thus: Wound treatment (scratch) assay in HaCaT cells. The format is cell-based, human. Particulars: 48 hours. The method, then: HaCaT cells subcultured for about one week in DMEM [containing+8% FBS, AA] medium were inoculated in a 6-well plate at 2×10^5 cells/mL ([…]). Then, the cells were cultured for about 24 hours until the cells reached 80% confluency. HaCaT cells are an adult human skin-derived and spontaneously […] aneuploid immortal keratinocyte cell line. After the culture, the cells were washed with 1×PBS buffer and the used medium was replaced with an FBS and antibiotic-free medium. Then, mitomycin was added thereto at a concentration of 30 μg/mL and the cells were cultured for 2 hours. Then, the cells were washed with 1×PBS buffer, and a cell monolayer on the bottom surface of each well was scratched by using a 200 μL pipette tip to harm the cells. Since some cells were washed away by the scratching, the plate was washed repeatedly with 1×PBS buffer and then, filled with DMEM medium containing FBS and AA, and photographed at the time of 0 hour.
The 15-PGDH inhibitor was then injected at a concentration of 5 μM or the indicated concentration. For comparison with the results, in the case of the negative control, nothing was added, and in the case of the positive control, TGF-β1 was injected at a concentration of 1 ng/mL and then, the cells were cultured for 48 hours. After 48 hours, the picture of the cells was taken again to confirm how much the cells were grown due to the drug effect.

Sequence of 15-PGDH (P15428 whole entry): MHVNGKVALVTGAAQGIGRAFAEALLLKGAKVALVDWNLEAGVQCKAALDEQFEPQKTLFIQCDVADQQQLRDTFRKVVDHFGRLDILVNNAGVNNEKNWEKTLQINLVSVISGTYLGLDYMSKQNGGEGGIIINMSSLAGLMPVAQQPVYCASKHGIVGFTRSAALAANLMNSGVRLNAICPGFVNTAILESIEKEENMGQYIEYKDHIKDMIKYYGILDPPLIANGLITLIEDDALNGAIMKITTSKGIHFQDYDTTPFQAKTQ

The compound `O=C(CCCc1ccccc1)Oc1cccc(/C=C2\SC(=O)NC2=O)c1Cl` [Compound 89, (Z)-2-chloro-3-((2,4-dioxothiazolidin-5-ylidene)methyl)phenyl 4-phenylbutanoate] had a concentration for half-maximal inhibition (IC50) in experiment [1] of 25.1 nM. Further, the Increment % in experiment [2] (PGE2 concentration versus PBS control, 5 μM, 12 hours) was determined as 398.2%. The compound also gave a PGE2 concentration in experiment [2] (inhibitor 5 μM, medium collected after 12 hours, ELISA) of 1048.274 pg/mL. Further, the wound closure rate result in experiment [3] (0.5 μM to 5 μM, versus control (FIGS. 4 to 6)) was “significantly high wound closure rate”; in experiment [3] (5 μM, versus control (FIGS. 1 to 3)), “significantly higher wound closure rates than the control”.

As usually defined, the IC50 is the concentration that gives 50% inhibition.
